The record followed here is patent publication US20260374773A1, “MULTI-CYCLIC IRAK AND FLT3 INHIBITING COMPOUNDS AND USES THEREOF” (CHILDREN'S HOSPITAL MEDICAL CENTER, priority 2022, published 2026).

Molecules are shown by their SMILES.

For one experiment, the target named is T1, FLT3 K663Q (Homo sapiens, UniProt P36888, K663Q).
T1 sequence (P36888 27-993 K663Q): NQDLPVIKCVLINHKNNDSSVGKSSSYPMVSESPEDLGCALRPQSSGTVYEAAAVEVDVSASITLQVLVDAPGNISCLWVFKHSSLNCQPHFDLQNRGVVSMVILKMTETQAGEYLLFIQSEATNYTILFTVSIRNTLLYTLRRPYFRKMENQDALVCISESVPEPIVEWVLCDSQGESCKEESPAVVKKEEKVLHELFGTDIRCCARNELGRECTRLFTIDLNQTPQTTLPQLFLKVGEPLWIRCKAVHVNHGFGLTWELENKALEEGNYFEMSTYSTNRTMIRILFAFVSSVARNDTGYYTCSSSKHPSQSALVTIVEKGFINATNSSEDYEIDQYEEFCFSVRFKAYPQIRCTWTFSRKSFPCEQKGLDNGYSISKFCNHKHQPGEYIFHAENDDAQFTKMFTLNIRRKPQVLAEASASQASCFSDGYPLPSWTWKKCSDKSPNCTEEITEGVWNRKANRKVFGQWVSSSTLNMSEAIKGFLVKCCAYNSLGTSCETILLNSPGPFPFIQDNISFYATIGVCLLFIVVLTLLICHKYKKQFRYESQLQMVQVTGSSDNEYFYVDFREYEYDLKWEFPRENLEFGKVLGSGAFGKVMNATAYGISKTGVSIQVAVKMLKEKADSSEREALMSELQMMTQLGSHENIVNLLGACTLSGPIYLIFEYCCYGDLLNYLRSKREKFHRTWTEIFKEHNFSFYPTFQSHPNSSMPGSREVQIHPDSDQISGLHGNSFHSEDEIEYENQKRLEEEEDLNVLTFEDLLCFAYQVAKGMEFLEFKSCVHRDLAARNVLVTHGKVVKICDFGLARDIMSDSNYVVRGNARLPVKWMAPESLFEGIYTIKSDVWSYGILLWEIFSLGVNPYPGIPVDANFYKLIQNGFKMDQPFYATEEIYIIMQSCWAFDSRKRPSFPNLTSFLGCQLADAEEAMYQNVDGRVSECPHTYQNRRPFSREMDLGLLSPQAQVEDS
As to the kind of experiment: DiscoverX KINOMEscan active site-directed competition binding, FLT3 K663Q. Particulars: Table 13; no ATP.
Source text: (§1) Kinase binding data were obtained for various exemplary compounds prepared according to Examples 1-8 using the DiscoverX KINOMEscan® active site-directed competition binding site-directed assay protocol described below. […] As a result, the data report thermodynamic interaction affinities (Kd values), rather than IC50 values that are dependent on ATP concentrations. The assay uses a DNA-tagged version of the protein kinase, and an immobilized ligand bound to a solid support. Compounds that directly or indirectly prevent kinase binding to the immobilized ligand reduce the amount of kinase captured on the solid support, which is detected using an ultra-sensitive qPCR method. Affinity constants reported from the assay have been reported to be independent of the immobilized ligand used that is coupled to the solid support (See supplemental information in Fabian, M. A. et. al., (2005) Nat. Biotechnol. 23, 329-336; Wodicka, L. M. et. al., (2010) Chem. Biol. 17, 1241-1249.)
Kinase-tagged T7 phage strains were prepared in an E. coli host derived from the BL21 strain. E. coli were grown to log-phase and infected with T7 phage and incubated with shaking at 32 °C until lysis. The lysates were centrifuged and filtered to remove cell debris. The remaining kinases were produced in HEK-293 cells and subsequently tagged with DNA for qPCR detection. Streptavidin-coated magnetic beads were treated with biotinylated small molecule ligands for 30 minutes at room temperature to generate affinity resins for kinase assays. The liganded beads were blocked with excess biotin and washed with blocking buffer (SeaBlock (Pierce), 1% BSA, 0.05% Tween 20, 1 mM DTT) to remove unbound ligand and to reduce non-specific binding. […] Test compounds were prepared as 111x stocks in 100% DMSO. Kds were determined using an 11-point 3-fold compound dilution series with three DMSO control points. All compounds for Kd measurements are distributed by acoustic transfer (non-contact dispensing) in 100% DMSO. The compounds were then diluted directly into the assays such that the final concentration of DMSO was 0.9%. All reactions were performed in polypropylene 384-well plates. Each was a final volume of 0.02 mL. The assay plates were incubated at room temperature with shaking for 1 hour and the affinity beads were washed with wash buffer (1×PBS, 0.05% Tween 20). The beads were then re-suspended in elution buffer (1×PBS, 0.05% Tween 20, 0.5 μM nonbiotinylated affinity ligand) and incubated at room temperature with shaking for 30 minutes. The kinase concentration in the eluates was measured by qPCR. Binding constants (Kds) were calculated with a standard dose-response curve using the Hill equation. The Hill Slope was set to −1. Curves were fitted using a non-linear least square fit with the Levenberg-Marquardt algorithm.
as §1, with “9-12” for “1-8”
Kinase-tagged T7 phage strains were prepared in an E. coli host derived from the BL21 strain. […]
`COc1cn2ncc(-c3nc(N[C@H]4CNCC[C@@H]4F)c(C#N)cc3F)c2nc1C1CC1` [Compound 7, 6-(5-cyclopropyl-6-methoxypyrazolo[1,5-a]pyrimidin-3-yl)-5-fluoro-2-(((3S,4S)-4-fluoropiperidin-3-yl)amino)nicotinonitrile] displayed a dissociation constant Kd of less than 0.17 nM. The same measure, in the same setting: the figure for `COc1cn2ncc(-c3nc(N[C@H]4CNCC[C@@H]4F)c(C#N)cc3F)c2nc1C(C)(C)O` [Compound 10, 5-fluoro-2-(((3S,4S)-4-fluoropiperidin-3-yl)amino)-6-(5-(2-hydroxypropan-2-yl)-6-methoxypyrazolo[1,5-a]pyrimidin-3-yl)nicotinonitrile] is 1.1 nM; for `COc1cn2ncc(-c3nc(N[C@H]4CNCC[C@@H]4F)c(F)cc3F)c2nc1C(C)(C)O` [Compound 13, 2-(3-(3,5-difluoro-6-(((3S,4S)-4-fluoropiperidin-3-yl)amino)pyridin-2-yl)-6-methoxypyrazolo[1,5-a]pyrimidin-5-yl)propan-2-ol] it is 1.6 nM.

Still in this experiment, the particulars now being: Table 19; no ATP.
Take `COc1cn2ncc(-c3nc(N[C@H]4CNCC[C@@H]4F)ncc3F)c2nc1C(C)(C)O` [Compound 6a, 2-(3-(5-fluoro-2-(((3S,4S)-4-fluoropiperidin-3-yl)amino)pyrimidin-4-yl)-6-methoxypyrazolo[1,5-a]pyrimidin-5-yl)propan-2-ol]: the Kd worked out at 2 nM. On the same count and under the same terms, the figure for `COc1cn2ncc(-c3cncc(N[C@H]4CNCC[C@@H]4F)n3)c2nc1C1CC1` [Compound 12a, 6-(5-cyclopropyl-6-methoxypyrazolo[1,5-a]pyrimidin-3-yl)-N-((3S,4S)-4-fluoropiperidin-3-yl)pyrazin-2-amine] is 0.44 nM; for `COc1cn2ncc(-c3nc(N[C@@H]4CCCNC4)ncc3F)c2nc1C1CC1` [Compound 14a, (R)-4-(5-cyclopropyl-6-methoxypyrazolo[1,5-a]pyrimidin-3-yl)-5-fluoro-N-(piperidin-3-yl)pyrimidin-2-amine] it is less than 0.17 nM; for `COc1cn2ncc(-c3nc(N[C@H]4CNCC[C@@H]4F)ncc3F)c2nc1C1CC1` [Compound 15a, 4-(5-cyclopropyl-6-methoxypyrazolo[1,5-a]pyrimidin-3-yl)-5-fluoro-N-((3S,4S)-4-fluoropiperidin-3-yl)pyrimidin-2-amine] it is 0.21 nM. On the same count and under the same terms, the figure for `COc1cn2ncc(-c3ccnc(N[C@H]4CNCC[C@@H]4F)n3)c2nc1C1CC1` [Compound 7a, 4-(5-cyclopropyl-6-methoxypyrazolo[1,5-a]pyrimidin-3-yl)-N-((3S,4S)-4-fluoropiperidin-3-yl)pyrimidin-2-amine] is 0.82 nM.
